Results reported in ChEMBL document CHEMBL1146808, “Structure-activity relationships of adenosine A3 receptor ligands: new potential therapy for the treatment of glaucoma” (Bioorg Med Chem Lett, 2004).
“And” between values parts separate entries of the source, which are not always exact repeats. Equal values may be shown once.

Tests used:
[1] = molecular target: Adenosine receptor A2a (Homo sapiens, UniProt P29274); assay: biochemical; type: cell-based, HEK293
Description: Displacement of specific [3H]-CGS- 21680 binding at human adenosine A2A receptor expressed in HEK293 cells

[2] = tested on: Monkey; type: functional, Cercopithecidae, Eye
Description: Effect on IOP (intraocular pressure) was determined in monkey; compared to control that is 20.7 mmHg

[3] = molecular target: T1, Adenosine receptor A1 (Homo sapiens, UniProt P30542); assay: biochemical; type: cell-based, CHO
T1 sequence (P30542 whole entry): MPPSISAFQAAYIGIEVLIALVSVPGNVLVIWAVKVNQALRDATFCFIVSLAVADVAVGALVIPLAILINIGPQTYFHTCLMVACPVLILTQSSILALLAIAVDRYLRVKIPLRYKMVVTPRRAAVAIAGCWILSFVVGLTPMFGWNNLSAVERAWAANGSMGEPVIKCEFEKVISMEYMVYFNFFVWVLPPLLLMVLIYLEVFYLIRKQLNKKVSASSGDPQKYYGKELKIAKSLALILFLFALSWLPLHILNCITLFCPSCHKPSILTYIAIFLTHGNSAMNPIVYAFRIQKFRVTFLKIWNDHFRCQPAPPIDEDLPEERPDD
Description: Displacement of specific [3H]DPCPX binding at human adenosine A1 receptor expressed in CHO cells.

[4] = molecular target: T2, Adenosine receptor A2b (Homo sapiens, UniProt P29275); assay: biochemical; type: cell-based, HEK293
T2 sequence (P29275 whole entry): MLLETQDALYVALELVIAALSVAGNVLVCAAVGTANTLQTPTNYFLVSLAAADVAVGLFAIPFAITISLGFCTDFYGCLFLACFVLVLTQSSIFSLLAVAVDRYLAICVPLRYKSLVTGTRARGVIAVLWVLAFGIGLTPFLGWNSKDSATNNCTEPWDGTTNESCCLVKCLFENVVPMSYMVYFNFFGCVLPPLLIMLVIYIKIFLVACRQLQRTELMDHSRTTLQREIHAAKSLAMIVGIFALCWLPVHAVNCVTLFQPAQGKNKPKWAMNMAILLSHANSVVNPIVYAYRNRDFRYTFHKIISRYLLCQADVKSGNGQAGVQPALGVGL
Description: Displacement of specific [3H]DPCPX binding at human adenosine A2B receptor expressed in HEK293 cells.

Adenosine receptor A2a, sequence (P29274 whole entry): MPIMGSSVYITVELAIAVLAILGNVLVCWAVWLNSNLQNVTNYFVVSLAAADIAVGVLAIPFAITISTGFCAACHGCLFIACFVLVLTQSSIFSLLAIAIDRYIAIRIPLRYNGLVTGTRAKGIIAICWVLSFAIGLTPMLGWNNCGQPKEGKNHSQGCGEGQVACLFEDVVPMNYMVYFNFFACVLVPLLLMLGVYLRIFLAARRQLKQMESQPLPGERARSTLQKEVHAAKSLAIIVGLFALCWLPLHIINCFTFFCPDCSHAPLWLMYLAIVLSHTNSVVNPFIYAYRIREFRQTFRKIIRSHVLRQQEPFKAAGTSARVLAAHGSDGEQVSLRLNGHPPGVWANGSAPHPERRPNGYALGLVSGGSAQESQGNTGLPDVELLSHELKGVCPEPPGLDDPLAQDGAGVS

Row | SMILES | IC50 [1] [µM] | IC50 [3] [µM] | IC50 [4] [µM] | Effect [2]
1 | CCCCc1nc2n[nH]cc2c2nc(-c3cccc(Cl)c3)nn12 | 0.76 | – | – | –
3 | CCCCc1nc2n[nH]cc2c2nc(-c3ccccc3Cl)nn12 | 0.13 | – | – | –
5 | CCCCc1nc2cccc(Cl)c2c2nc(-c3ccccc3)nn12 | > 10 | – | – | –

The next lines start with results.

Row | IC50 [1] [µM] | IC50 [3] [µM] | IC50 [4] [µM] | SMILES | Effect [2]
8 | > 10 | – | – | O=C(O)CCc1nc2nc[nH]c2c2nc(-c3ccc(-c4ccccc4)cc3)nn12 | –
10 | – | > 10 | > 10 | CCCCc1nc2[nH]cnc2c2nc(-c3ccc(C(F)(F)F)cc3)nn12 | 19.6 mmHg and 19.1 mmHg
11 | > 10 | > 10 | > 10 | O=C(O)CCCc1nc2nc[nH]c2c2nc(-c3ccc(Cl)cc3)nn12 | –
13 | > 10 | > 10 | > 10 | COCCc1nc2nc[nH]c2c2nc(-c3ccc(-c4ccccc4)cc3)nn12 | –
14 | > 10 | > 10 | > 10 | CCCCc1nc2nc[nH]c2c2nc(-c3ccc(-c4ccccc4)cc3)nn12 | –
